# Source: patent US10906880B2, “Kind of isothiazole oxime ether-containing strobilurin derivatives and its preparation methods and application” (priority 2016, dated 2021)
# Values joined by “and” are separate entries in the source; they are usually repeats but may differ in a detail not shown here. Equal entries are not always repeated. Where two headings read alike, the source gives them in different places.
# Assays:
# Alternaria solani = assay: Fungicide activity, mycelial growth inhibition on PDA plate; format: cell-based; settings: for inhibition at 50 µg/mL: Alternaria solani, read-out: Fungicidal activity inhibition, AS
# Cercospora arachidicola = assay: as above; format: cell-based; settings: for inhibition at 50 µg/mL: Mycosphaerella arachidis, read-out: Fungicidal activity inhibition, CA
# Gibberella zeae = assay: microbe, parasite or virus in culture; format: cell-based; settings: for Fungicidal activity inhibition, GZ: 50 μg/mL, G. zeae; for inhibition at 50 µg/mL: Fusarium graminearum, read-out: Fungicidal activity inhibition, GZ, 50 μg/mL, G. zeae
# Physalospora piricola = assay: Fungicide activity, mycelial growth inhibition on PDA plate; format: cell-based; settings: for inhibition at 50 µg/mL: 50 μg/mL, P. piricola, read-out: Fungicidal activity inhibition, PP
# Botrytis cinerea = assay: as above; format: cell-based; settings: for inhibition at 50 µg/mL: Botrytis cinerea, read-out: Fungicidal activity inhibition, BC
# Sclerotinia sclerotiorum = assay: as above; format: cell-based; settings: for inhibition at 50 µg/mL: Sclerotinia sclerotiorum, read-out: Fungicidal activity inhibition, SS
# Rhizoctonia cerealis = assay: as above; format: cell-based; settings: for inhibition at 50 µg/mL: Ceratobasidium cereale, read-out: Fungicidal activity inhibition, RC
# Pellicularia sasakii = assay: as above; format: cell-based; settings: for inhibition at 50 µg/mL: 50 μg/mL, P. sasakii, read-out: Fungicidal activity inhibition, PS
# [1] = test system: Phytophthora infestans (Mont) de Bary; assay: microbe, parasite or virus in culture; format: cell-based; settings: for Fungicidal activity inhibition, PI: 50 μg/mL, P. infestans (Mont.) de Bary; for inhibition at 50 µg/mL: Phytophthora infestans, read-out: Fungicidal activity inhibition, PI, 50 μg/mL, P. infestans (Mont.) de Bary
# TMV [2] = assay: Anti-TMV activity on tobacco, curative mode; format: in vivo, tobacco mosaic virus; settings: 100 μg/mL, tobacco; for inhibition at 100 µg/mL: Tobacco mosaic virus, read-out: Anti-TMV activity inhibition, Curative effect
# TMV [3] = assay: Anti-TMV activity on tobacco, inactivation mode; format: in vivo, tobacco mosaic virus; settings: 100 μg/mL; for inhibition at 100 µg/mL: Tobacco mosaic virus, read-out: Anti-TMV activity inhibition, Inactivation effect
# TMV [4] = assay: Anti-TMV activity on tobacco, protection mode; format: in vivo, tobacco mosaic virus; settings: 100 μg/mL; for inhibition at 100 µg/mL: Tobacco mosaic virus, read-out: Anti-TMV activity inhibition, Protection effect
# TMV [5] = assay: Anti-TMV activity on tobacco, induction mode (systemic acquired resistance); format: in vivo, tobacco mosaic virus; settings: 100 μg/mL; for inhibition at 100 µg/mL: Tobacco mosaic virus, read-out: Anti-TMV activity inhibition, Induction effect
Structure (SMILES),"Fungicidal activity inhibition, GZ (Gibberella zeae)","Fungicidal activity inhibition, PI [1] [%]",inhibition at 100 µg/mL (TMV [2]) [%],inhibition at 100 µg/mL (TMV [3]) [%],inhibition at 100 µg/mL (TMV [4]) [%],inhibition at 100 µg/mL (TMV [5]) [%],"inhibition at 50 µg/mL (Alternaria solani; 50 μg/mL, A. solani) [%]",inhibition at 50 µg/mL (Alternaria solani) [%],"inhibition at 50 µg/mL (Cercospora arachidicola; 50 μg/mL, C. arachidicola) [%]",inhibition at 50 µg/mL (Cercospora arachidicola) [%],inhibition at 50 µg/mL (Physalospora piricola) [%],"inhibition at 50 µg/mL (Botrytis cinerea; 50 μg/mL, B. cinerea) [%]","inhibition at 50 µg/mL (Sclerotinia sclerotiorum; 50 μg/mL, S. sclerotiorum) [%]","inhibition at 50 µg/mL (Rhizoctonia cerealis; 50 μg/mL, R. cerealis) [%]",inhibition at 50 µg/mL (Rhizoctonia cerealis) [%],inhibition at 50 µg/mL (Pellicularia sasakii) [%],melting point [°C],inhibition at 50 µg/mL (Sclerotinia sclerotiorum) [%],inhibition at 50 µg/mL (Botrytis cinerea) [%],other results
"CO/C=C(/C(=O)OC)c1ccccc1Oc1cc(Oc2ccccc2C#N)ncn1 [Azoxystrobin, reference compound]",71.43%,46.88,,,,,,,,,,,,,,,,,,"Fungicidal activity inhibition, AS (Alternaria solani): 75.00%; Fungicidal activity inhibition, CA (Cercospora arachidicola): 55.56%; Fungicidal activity inhibition, PP (Physalospora piricola): 100%; Fungicidal activity inhibition, BC (Botrytis cinerea): 91.18%; Fungicidal activity inhibition, SS (Sclerotinia sclerotiorum): 88.10%; Fungicidal activity inhibition, RC (Rhizoctonia cerealis): 84.06%; Fungicidal activity inhibition, PS (Pellicularia sasakii): 80.77%"
"CNC(=O)/C(=N/OC)c1cc(C)c(C)cc1CO/N=C(\C)c1cc(Cl)ns1 [CL04-00, reference compound]",29.63% and 50.00%,,27.3 ± 1.24,20.7 ± 2.1,26.3 ± 2.47,20.3 ± 2.16,,,,,,,,,,,,,,"Anti-TMV activity inhibition, Curative effect (TMV [2]): 26.39 ± 1.22%; Anti-TMV activity inhibition, Inactivation effect (TMV [3]): 19.68 ± 1.10%; Anti-TMV activity inhibition, Protection effect (TMV [4]): 25.30 ± 1.47%; Anti-TMV activity inhibition, Induction effect (TMV [5]): 19.34 ± 1.14%"
CO/N=C(/C(=O)OC)c1ccccc1CO/N=C(\C)c1snc(Cl)c1Cl [CL04-15A],,,1.52 ± 0.62,,> 40,,47.1,> 30,50,> 30,53,100,100,85.5,> 50,76.9,73 to 75,,,inhibition at 50 µg/mL (Gibberella zeae): > 30%
CO/N=C(/C(=O)OC)c1ccccc1CO/N=C(C)/C=C/c1snc(Cl)c1Cl [CL04-17],,,> 30,> 30,29.3 ± 1.31,> 30,35.7,> 30,50,> 30,47.8,100,86.7,81.5,> 50,58.8,105 to 107,> 40,,inhibition at 50 µg/mL [1]: > 40%
C#CCNC(=O)/C(=N/OC)c1ccccc1CO/N=C(\C)c1snc(Cl)c1Cl [CL04-22B],100%,,1.52 ± 0.62,> 30,> 40,,28.6,,35.7,> 30,49.1,51.9,100,86.9,> 50,73.3,120 to 122,,> 45,
CNC(=O)/C(=N/OC)c1ccccc1CO/N=C(\C)c1snc(Cl)c1Cl [CL04-22D],100%,100,32.8 ± 3.36,4.44 ± 0.85,> 40,,47.5,> 30,87.5,,80.8,100,100,100,,89.2,79 to 81,,,
CO/N=C(/C(=O)NC(C)(C)CSC)c1ccccc1CO/N=C(\C)c1snc(Cl)c1Cl [CL04-22E],,,20.2 ± 5.58,> 30,22.7 ± 2.05,12.7 ± 6.05,27.3,,45.8,> 30,42.9,62.5,29.4,76,> 50,21.2,,,> 45,inhibition at 50 µg/mL [1]: 28.6%
CO/N=C(/C(=O)N[C@@H](C)CSC)c1ccccc1CO/N=C(\C)c1snc(Cl)c1Cl [CL04-22F],,,1.52 ± 0.62,0,23.8 ± 3.42,,16.4,,12.5,,32.8,45.5,52.9,76,> 50,15.2,35 to 37,> 40,> 45,inhibition at 50 µg/mL (Gibberella zeae): > 30%; inhibition at 50 µg/mL [1]: 17.1%
CO/N=C(/C(=O)NC1CC1)c1ccccc1CO/N=C(\N)c1snc(Cl)c1Cl [CL04-25B],,,20.5 ± 1.84,0,19.6 ± 3.36,18.6 ± 3.76,21.3,,28,,22.8,36.8,73.3,85.4,> 50,18.9,,> 40,,inhibition at 50 µg/mL [1]: 33.3%
CNC(=O)/C(=N/OC)c1ccccc1CO/N=C(\N)c1snc(Cl)c1Cl [CL04-25C],100%,100,14.7 ± 4.84,0,> 40,,34.4,> 30,44,> 30,40.4,57.9,66.7,100,,83.8,122 to 124,> 40,> 45,
CO/N=C(/C(=O)NC1CC1)c1ccccc1CO/N=C(C)/C=C/c1snc(Cl)c1Cl [CL04-32C],,100,31.6 ± 3.91,> 30,19 ± 0.72,16 ± 7.71,47.5,> 30,60,> 30,71.9,57.9,73.3,70.7,> 50,67.6,95 to 97,> 40,> 45,
CNC(=O)/C(=N/OC)c1ccccc1CO/N=C(C)/C=C/c1snc(Cl)c1Cl [CL04-32D],100%,100,1.52 ± 0.62,,39.1 ± 2.73,> 30,54.1,> 30,84,,64.9,84.2,73.3,85.4,> 50,89.2,137 to 139,> 40,> 45,
"CO/C=C(/C(=O)OC)c1ccccc1CO/N=C(C)/C=C/c1ccc(Cl)cc1 [Enestroburin, reference compound]",21.54%,32.97,,,,,,,,,,,,,,,,,,"Fungicidal activity inhibition, AS (Alternaria solani): 50.00%; Fungicidal activity inhibition, CA (Cercospora arachidicola): 55.22%; Fungicidal activity inhibition, PP (Physalospora piricola): 59.09%; Fungicidal activity inhibition, BC (Botrytis cinerea): 48.57%; Fungicidal activity inhibition, SS (Sclerotinia sclerotiorum): 44.00%; Fungicidal activity inhibition, RC (Rhizoctonia cerealis): 73.97%; Fungicidal activity inhibition, PS (Pellicularia sasakii): 57.50%"
"N#Cc1ccccc1NC(=O)c1snc(Cl)c1Cl [Isotianil, reference compound]",,,,,,,,,,,,,,,,,,,,"Anti-TMV activity inhibition, Curative effect (TMV [2]): 27.31 ± 2.12%; Anti-TMV activity inhibition, Inactivation effect (TMV [3]): 20.77 ± 7.30%; Anti-TMV activity inhibition, Protection effect (TMV [4]): 24.80 ± 5.85%; Anti-TMV activity inhibition, Induction effect (TMV [5]): 44.44 ± 5.18%"
